Reference: the NIST ThermoML archive (doi:10.1016/j.jct.2004.07.031)
Several values for one entry are separate records, joined by “and”; a condition that tells them apart may be missing. Equal values may be shown once.

Experiment: molar heat capacity at constant pressure
Conditions: 101.33 kPa, Crystal, PPMS instrument (Quantum Design)

O=P([O-])([O-])[O-].[Gd+3] [gadolinium orthophosphate]
Conditions | molar heat capacity at constant pressure
0.525 K | 7.722 J/K/mol
0.536 K | 8.106 J/K/mol
0.547 K | 8.475 J/K/mol
0.558 K | 8.855 J/K/mol
0.569 K | 9.277 J/K/mol
0.58 K | 9.631 J/K/mol
0.591 K | 10.11 J/K/mol
0.602 K | 10.69 J/K/mol
0.614 K | 11.24 J/K/mol
0.625 K | 11.83 J/K/mol
0.637 K | 12.57 J/K/mol
0.648 K | 13.42 J/K/mol
0.659 K | 14.37 J/K/mol
0.67 K | 15.29 J/K/mol
0.681 K | 16.55 J/K/mol
0.693 K | 17.9 J/K/mol
0.703 K | 19.56 J/K/mol
0.715 K | 21.6 J/K/mol
0.726 K | 24.07 J/K/mol
0.73 K | 25.16 J/K/mol
0.733 K | 26.31 J/K/mol
0.737 K | 27.55 J/K/mol
0.738 K | 27.92 J/K/mol
0.742 K | 29.69 J/K/mol
0.743 K | 29.92 J/K/mol
0.745 K | 31.34 J/K/mol
0.747 K | 31.86 J/K/mol
0.75 K | 33.48 J/K/mol
0.751 K | 34.37 J/K/mol
0.752 K | 35.17 J/K/mol
0.755 K | 37.19 J/K/mol
0.756 K | 37.83 J/K/mol
0.758 K | 40.08 J/K/mol
0.76 K | 41.57 J/K/mol
0.763 K | 44.62 J/K/mol
0.764 K | 46.25 J/K/mol
0.765 K | 47.54 J/K/mol
0.768 K | 50.76 J/K/mol
0.77 K | 52.55 J/K/mol
0.772 K | 53.77 J/K/mol
0.773 K | 54.78 J/K/mol
0.776 K | 54.21 J/K/mol
0.777 K | 51.7 J/K/mol and 54.18 J/K/mol
0.782 K | 37.73 J/K/mol
0.783 K | 33.58 J/K/mol
0.784 K | 31.28 J/K/mol
0.786 K | 23.82 J/K/mol
0.79 K | 19.56 J/K/mol
0.791 K | 19.09 J/K/mol
0.794 K | 17.74 J/K/mol
0.796 K | 16.84 J/K/mol
0.797 K | 16.39 J/K/mol
0.799 K | 15.8 J/K/mol
0.8 K | 15.62 J/K/mol
0.804 K | 14.83 J/K/mol
0.806 K | 14.48 J/K/mol
0.816 K | 13.11 J/K/mol
0.843 K | 11.32 J/K/mol
0.867 K | 10.3 J/K/mol
0.872 K | 10.13 J/K/mol
0.882 K | 9.827 J/K/mol
0.89 K | 9.584 J/K/mol
0.892 K | 9.579 J/K/mol
0.902 K | 9.269 J/K/mol
0.912 K | 9.065 J/K/mol
0.914 K | 9.009 J/K/mol
0.922 K | 8.871 J/K/mol
0.933 K | 8.692 J/K/mol
0.939 K | 8.538 J/K/mol
0.942 K | 8.499 J/K/mol
0.952 K | 8.332 J/K/mol
0.962 K | 8.221 J/K/mol
0.963 K | 8.167 J/K/mol
0.973 K | 8.056 J/K/mol
0.983 K | 7.933 J/K/mol
0.986 K | 7.919 J/K/mol
0.993 K | 7.852 J/K/mol
1.003 K | 7.778 J/K/mol
1.01 K | 7.554 J/K/mol
1.059 K | 6.868 J/K/mol
1.141 K | 6.058 J/K/mol
1.22 K | 5.523 J/K/mol
1.301 K | 4.919 J/K/mol
1.381 K | 4.476 J/K/mol
1.461 K | 4.061 J/K/mol
1.544 K | 3.711 J/K/mol
1.619 K | 3.447 J/K/mol
1.699 K | 3.178 J/K/mol
1.78 K | 2.944 J/K/mol
1.841 K | 2.578 J/K/mol
1.86 K | 2.751 J/K/mol
1.94 K | 2.578 J/K/mol
2.02 K | 2.372 J/K/mol
2.234 K | 1.874 J/K/mol
2.648 K | 1.377 J/K/mol
3.055 K | 1.063 J/K/mol
3.464 K | 0.8457 J/K/mol
3.872 K | 0.6931 J/K/mol
4.291 K | 0.57 J/K/mol
4.675 K | 0.4911 J/K/mol
5.081 K | 0.4292 J/K/mol
5.499 K | 0.3415 J/K/mol
5.896 K | 0.3389 J/K/mol
6.3 K | 0.3079 J/K/mol
6.728 K | 0.2809 J/K/mol
7.126 K | 0.2659 J/K/mol
7.523 K | 0.2545 J/K/mol
7.936 K | 0.2483 J/K/mol
8.343 K | 0.2454 J/K/mol
8.747 K | 0.246 J/K/mol
8.971 K | 0.2476 J/K/mol
9.151 K | 0.2497 J/K/mol
9.554 K | 0.2573 J/K/mol
9.964 K | 0.2698 J/K/mol
9.976 K | 0.2696 J/K/mol
10.96 K | 0.3114 J/K/mol
11.94 K | 0.3719 J/K/mol
12.94 K | 0.4546 J/K/mol
13.93 K | 0.5628 J/K/mol
14.93 K | 0.6954 J/K/mol
15.93 K | 0.8555 J/K/mol
16.93 K | 1.039 J/K/mol
17.94 K | 1.247 J/K/mol
18.95 K | 1.476 J/K/mol
19.95 K | 1.752 J/K/mol
20.95 K | 2.036 J/K/mol
21.96 K | 2.353 J/K/mol
22.97 K | 2.692 J/K/mol
23.97 K | 3.053 J/K/mol
24.98 K | 3.44 J/K/mol
25.98 K | 3.849 J/K/mol
26.99 K | 4.279 J/K/mol
28 K | 4.714 J/K/mol
29 K | 5.169 J/K/mol
30.01 K | 5.631 J/K/mol
32 K | 6.652 J/K/mol
34 K | 7.603 J/K/mol
36.02 K | 8.663 J/K/mol
38.05 K | 9.792 J/K/mol
40.06 K | 10.89 J/K/mol
42.08 K | 12.02 J/K/mol
44.09 K | 13.17 J/K/mol
46.11 K | 14.35 J/K/mol
48.12 K | 15.55 J/K/mol
50.14 K | 16.75 J/K/mol
53.15 K | 18.58 J/K/mol
56.16 K | 20.4 J/K/mol
59.19 K | 22.22 J/K/mol
62.22 K | 24.02 J/K/mol
65.24 K | 25.8 J/K/mol
68.26 K | 27.54 J/K/mol
71.29 K | 29.29 J/K/mol
74.3 K | 31.02 J/K/mol
77.33 K | 32.72 J/K/mol
80.35 K | 34.4 J/K/mol
85.39 K | 37.09 J/K/mol
92.14 K | 40.56 J/K/mol
98.9 K | 43.87 J/K/mol
105.7 K | 47.02 J/K/mol
112.4 K | 50.06 J/K/mol
119.2 K | 53.01 J/K/mol
126 K | 55.84 J/K/mol
132.7 K | 58.53 J/K/mol
139.5 K | 61.13 J/K/mol
146.3 K | 63.67 J/K/mol
153 K | 65.98 J/K/mol
159.8 K | 68.28 J/K/mol
166.6 K | 70.53 J/K/mol
173.3 K | 72.7 J/K/mol
180.1 K | 74.71 J/K/mol
186.8 K | 76.76 J/K/mol
193.6 K | 78.76 J/K/mol
200.4 K | 80.59 J/K/mol
207.1 K | 82.32 J/K/mol
213.8 K | 84.09 J/K/mol
220.6 K | 85.76 J/K/mol
227.4 K | 87.27 J/K/mol
234.1 K | 88.95 J/K/mol
240.9 K | 90.53 J/K/mol
247.7 K | 92.18 J/K/mol
254.4 K | 93.53 J/K/mol
261.1 K | 94.92 J/K/mol
267.9 K | 96.45 J/K/mol
274.6 K | 97.84 J/K/mol
281.3 K | 98.99 J/K/mol
288.1 K | 100.29 J/K/mol
294.8 K | 101.42 J/K/mol
301.6 K | 102.56 J/K/mol
